Patent US11420956B2, “Ureas having Androgen Receptor degradation activity and uses thereof” (ACCUTAR BIOTECHNOLOGY INC., priority 2019, dated 2022)
Changes are numbered by the printed parent chain.

What was measured:
Format in all cases: cell-based
Settings in all cases: 24 hours after administration
androgen receptor (AR) [1] = target: T1, androgen receptor (AR) (Homo sapiens, UniProt P10275, T878A); assay: AR degradation in LNCAP cells (Western blot)
T1 construct: endogenous in cells; host or cells: LNCAP
T1 sequence (P10275 1-920 T878A): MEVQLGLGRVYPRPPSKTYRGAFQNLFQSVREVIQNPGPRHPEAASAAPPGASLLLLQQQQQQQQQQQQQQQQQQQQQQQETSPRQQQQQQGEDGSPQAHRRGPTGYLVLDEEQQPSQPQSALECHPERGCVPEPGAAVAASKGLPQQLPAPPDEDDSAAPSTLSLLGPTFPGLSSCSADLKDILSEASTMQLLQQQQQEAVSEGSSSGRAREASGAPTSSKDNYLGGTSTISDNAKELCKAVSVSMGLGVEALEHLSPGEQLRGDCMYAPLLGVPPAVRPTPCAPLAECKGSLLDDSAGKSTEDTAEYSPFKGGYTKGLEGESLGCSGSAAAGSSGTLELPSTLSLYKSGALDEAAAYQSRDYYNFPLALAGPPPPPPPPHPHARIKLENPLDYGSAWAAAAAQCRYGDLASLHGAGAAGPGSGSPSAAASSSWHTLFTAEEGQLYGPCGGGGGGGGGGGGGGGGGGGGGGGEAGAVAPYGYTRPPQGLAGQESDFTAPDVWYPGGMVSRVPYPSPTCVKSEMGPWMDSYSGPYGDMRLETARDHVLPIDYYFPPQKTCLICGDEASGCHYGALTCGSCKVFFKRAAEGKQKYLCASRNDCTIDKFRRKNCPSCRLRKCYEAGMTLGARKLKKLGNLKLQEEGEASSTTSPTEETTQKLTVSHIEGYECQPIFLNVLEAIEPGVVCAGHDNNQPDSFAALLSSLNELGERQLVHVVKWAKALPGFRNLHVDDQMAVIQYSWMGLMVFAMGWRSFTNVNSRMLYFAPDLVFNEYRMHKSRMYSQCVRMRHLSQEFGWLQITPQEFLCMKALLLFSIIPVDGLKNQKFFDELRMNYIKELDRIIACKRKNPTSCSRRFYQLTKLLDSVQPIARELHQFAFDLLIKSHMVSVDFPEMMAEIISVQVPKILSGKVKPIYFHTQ
Method in brief: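 Cells plated in RPMI with 10% FBS overnight, then treated with compound at various concentrations (from 1000× DMSO stocks) for 24 h at 37 °C. AR level measured by Western blot with GAPDH as loading control, infrared-fluorescent detection and band quantification; DC50 is concentration giving 50% AR degradation.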

androgen receptor (AR) [2] = target: T2, androgen receptor (AR) (Homo sapiens, UniProt P10275); assay: AR degradation in VCAP cells (Western blot)
T2 construct: endogenous in cells; host or cells: VCAP
T2 sequence (P10275 1-920): T1 sequence (P10275 1-920 T878A) with A878T
Experimental: (§1) LNCAP, VCAP and 22Rv1 cells were plated in 24-well plates at 1.5×10E5 cells/well in the RPMI growth medium containing 10% FBS and 1% Penicillin Streptomycin, and then incubated at 37° C. overnight. The following day, the test compound was administered to the cells by using 1000× compound stock solution prepared in DMSO at various concentrations. After administration of the compound, the cells were then incubated at 37° C. for 24 hours. Upon completion, the cells were washed with PBS and protein was collected in Laemmli sample buffer (1×; VWR International). Proteins in cell lysate were separated by SDS-PAGE and transferred to Odyssey nitrocellulose membranes (Licor) with iblot® dry blotting transfer system (ThermoFisher). Nonspecific binding was blocked by incubating membranes with Intercept Blocking Buffer (Licor) for 1 hour at room temperature with gentle shaking. The membranes were then incubated overnight at 4° C. with Primary antibodies rabbit anti-AR (1:1,000, Cell Signaling, 5153) and mouse anti-GAPDH (1:5,000, Santa Cruz Biotechnology, sc-47724) diluted in Intercept Blocking Buffer containing 0.1% Tween 20. After washing 3 times with TBS-T, the membranes were incubated with IRDye® […] goat anti-mouse IgG (1:20,000, Licor) or IRDye® […] goat anti-rabbit IgG (1:20,000, Licor) for 1 hour. After TBS-T washes, membranes were rinsed in TBS and scanned on Odyssey® CLx Imaging System (Licor). The bands were quantified using Image Studio™ Software (Licor).
(§2) Tables 5 and 6 summarize the androgen receptor (AR) degradative activity of exemplary compounds in LNCAP, VCAP and 22Rv1 cell lines 24 hours after administration. DC50: compound concentration needed for 50% target protein degradation.

androgen receptor (AR) [3] = assay: AR degradation in 22Rv1 cells (Western blot)
Experimental: as §1, §2

Row | Molecule | DC50 (androgen receptor (AR) [1]) [nM] | DC50 (androgen receptor (AR) [2]) [nM] | DC50 (androgen receptor (AR) [3]) [nM]
1 | C[C@@H]1CN(c2ccc(C#N)c(C(F)(F)F)c2)[C@@H](C)CN1C(=O)Nc1ccc(N2CCC(CN3CCN(c4ccc5c(c4)CN([C@H]4CCC(=O)NC4=O)C5=O)CC3)CC2)nc1 [Compound 1-43, (2R,5S)-4-(4-cyano-3-(trifluoromethyl)phenyl)-N-(6-(4-((4-(2-((S)-2,6-dioxopiperidin-3-yl)-1-oxoisoindolin-5-yl)piperazin-1-yl)methyl)piperidin-1-yl)pyridin-3-yl)-2,5-dimethylpiperazine-1-carboxamide] | ≤ 10 | ≤ 10 | ≤ 10
2 | C[C@@H]1CN(c2ccc(C#N)c(Cl)c2)[C@@H](C)CN1C(=O)Nc1ccc(N2CCC(CN3CCN(c4ccc5c(c4)C(=O)N(C4CCC(=O)NC4=O)C5=O)CC3)CC2)nc1 (stereo partly drawn) [Compound 1-14, (2R,5S)-4-(3-chloro-4-cyanophenyl)-N-(6-(4-((4-(2-(2,6-dioxopiperidin-3-yl)-1,3-dioxoisoindolin-5-yl)piperazin-1-yl)methyl)piperidin-1-yl)pyridin-3-yl)-2,5-dimethylpiperazine-1-carboxamide] | ≤ 10 | ≤ 10 | –
3 | COc1cc(N2C[C@@H](C)N(C(=O)Nc3ccc(N4CCC(CN5CCN(c6ccc7c(c6)C(=O)N(C6CCC(=O)NC6=O)C7=O)CC5)CC4)nc3)C[C@@H]2C)ccc1C#N (stereo partly drawn) [Compound 1-26, (2R,5S)-4-(4-cyano-3-methoxyphenyl)-N-(6-(4-((4-(2-(2,6-dioxopiperidin-3-yl)-1,3-dioxoisoindolin-5-yl)piperazin-1-yl)methyl)piperidin-1-yl)pyridin-3-yl)-2,5-dimethylpiperazine-1-carboxamide] | ≤ 10 | ≤ 10 | –
4 | C[C@@H]1CN(C(=O)Nc2cnc(N3CCC(CN4CCN(c5ccc6c(c5)C(=O)N(C5CCC(=O)NC5=O)C6=O)CC4)CC3)nc2)[C@@H](C)CN1c1ccc(C#N)c(Cl)c1 (stereo partly drawn) [Compound 1-22, (2S,5R)-4-(3-chloro-4-cyanophenyl)-N-(2-(4-((4-(2-(2,6-dioxopiperidin-3-yl)-1,3-dioxoisoindolin-5-yl)piperazin-1-yl)methyl)piperidin-1-yl)pyrimidin-5-yl)-2,5-dimethylpiperazine-1-carboxamide] | > 100 | > 100 | –
5 | COc1cc(N2C[C@@H](C)N(C(=O)Nc3cnc(N4CCC(CN5CCN(c6ccc7c(c6)C(=O)N(C6CCC(=O)NC6=O)C7=O)CC5)CC4)nc3)C[C@@H]2C)ccc1C#N (stereo partly drawn) [Compound 1-27, (2R,5S)-4-(4-cyano-3-methoxyphenyl)-N-(2-(4-((4-(2-(2,6-dioxopiperidin-3-yl)-1,3-dioxoisoindolin-5-yl)piperazin-1-yl)methyl)piperidin-1-yl)pyrimidin-5-yl)-2,5-dimethylpiperazine-1-carboxamide] | ≤ 10 | ≤ 10 | –
6 | COc1cc(N2C[C@@H](C)N(C(=O)Nc3cc(F)c(N4CCC(CN5CCN(c6ccc7c(c6)C(=O)N(C6CCC(=O)NC6=O)C7=O)CC5)CC4)cc3F)C[C@@H]2C)ccc1C#N (stereo partly drawn) [Compound 1-29, (2R,5S)-4-(4-cyano-3-methoxyphenyl)-N-(4-(4-((4-(2-(2,6-dioxopiperidin-3-yl)-1,3-dioxoisoindolin-5-yl)piperazin-1-yl)methyl)piperidin-1-yl)-2,5-difluorophenyl)-2,5-dimethylpiperazine-1-carboxamide] | ≤ 10 | ≤ 10 | –
7 | C[C@@H]1CN(c2ccc(C#N)c(Cl)c2)[C@@H](C)CN1C(=O)Nc1cnc(N2CCC(CN3CCN(c4ccc5c(c4)C(=O)N(C4CCC(=O)NC4=O)C5=O)CC3)CC2)nc1 (stereo partly drawn) [Compound 1-21, (2R,5S)-4-(3-chloro-4-cyanophenyl)-N-(2-(4-((4-(2-(2,6-dioxopiperidin-3-yl)-1,3-dioxoisoindolin-5-yl)piperazin-1-yl)methyl)piperidin-1-yl)pyrimidin-5-yl)-2,5-dimethylpiperazine-1-carboxamide] | ≤ 10 | ≤ 10 | –
8 | C[C@@H]1CN(c2ccc(C#N)c(C(F)(F)F)c2)[C@@H](C)CN1C(=O)Nc1cnc(N2CCC(CN3CCN(c4ccc5c(c4)C(=O)N(C4CCC(=O)NC4=O)C5=O)CC3)CC2)nc1 (stereo partly drawn) [Compound 1-31, (2R,5S)-4-(4-cyano-3-(trifluoromethyl)phenyl)-N-(2-(4-((4-(2-(2,6-dioxopiperidin-3-yl)-1,3-dioxoisoindolin-5-yl)piperazin-1-yl)methyl)piperidin-1-yl)pyrimidin-5-yl)-2,5-dimethylpiperazine-1-carboxamide] | ≤ 10 | ≤ 10 | –
9 | (2R,5S)-4-(4-cyano-3-methoxyphenyl)-N-(4-(4-((4-(2-((S)-2,6-dioxopiperidin-3-yl)-1-oxoisoindolin-5-yl)piperazin-1-yl)methyl)piperidin-1-yl)-3-fluorophenyl)-2,5-dimethylpiperazine-1-carboxamide [Compound 1-53] | ≤ 10 | ≤ 10 | ≤ 10
10 | C[C@@H]1CN(c2ccc(C#N)c(Cl)c2)[C@@H](C)CN1C(=O)Nc1cnc(N2CCC(CN3CCN(c4ccc5c(c4)C(=O)N(C4CCC(=O)NC4=O)C5=O)CC3)CC2)nc1 (stereo partly drawn) [Compound 1-20, (2R,5S)-4-(3-chloro-4-cyanophenyl)-N-(2-(4-((4-(2-(2,6-dioxopiperidin-3-yl)-1,3-dioxoisoindolin-5-yl)piperazin-1-yl)methyl)piperidin-1-yl)pyrimidin-5-yl)-2,5-dimethylpiperazine-1-carboxamide] | ≤ 10 | – | ≤ 10
